Drawing on ChEMBL document CHEMBL1150528, “The heparin-like antiproliferative activity of sulfated tetrasaccharides is sensitive to structural variation” (Bioorg Med Chem Lett, 1995), this text covers Relative inhibitory activity and IC50 for 9 compounds.

Structures are written as SMILES.

The species named for one assay is Rattus norvegicus. The assay is described as follows: Relative inhibitory activity (ri) was measured in rat smooth muscle cells (SMC) at 100 ug/mL in comparison to that of Heparin. Format: functional.
For the next assay, the target named is Prothrombin (Homo sapiens, UniProt P00734). The assay is described as follows: Anticoagulant activity when interacted with Coagulation factor II.
In the next assay the target is Coagulation factor X (Homo sapiens, UniProt P00742). In words: Anticoagulant activity when interacted with Coagulation factor X.
Chain of Coagulation factor X (P00742 41-179 limits assumed): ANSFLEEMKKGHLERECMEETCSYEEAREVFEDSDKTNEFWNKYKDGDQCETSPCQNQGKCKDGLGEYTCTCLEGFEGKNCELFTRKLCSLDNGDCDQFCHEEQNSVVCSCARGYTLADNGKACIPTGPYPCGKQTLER
Chain of Coagulation factor X (P00742 235-488 limits assumed): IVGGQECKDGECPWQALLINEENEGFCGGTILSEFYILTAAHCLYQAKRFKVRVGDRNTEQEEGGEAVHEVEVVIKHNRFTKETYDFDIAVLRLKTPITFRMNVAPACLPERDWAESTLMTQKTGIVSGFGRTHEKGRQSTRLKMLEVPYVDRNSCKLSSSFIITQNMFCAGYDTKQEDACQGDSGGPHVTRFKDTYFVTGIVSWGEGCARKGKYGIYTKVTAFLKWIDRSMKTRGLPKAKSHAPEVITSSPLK

In turn, `O=S(=O)([O-])OC[C@@H]1O[C@@H](O[C@H]2O[C@@H](COS(=O)(=O)[O-])[C@@H](O[C@@H]3O[C@@H](CO[C@H]4O[C@@H](COS(=O)(=O)[O-])[C@@H](OS(=O)(=O)[O-])[C@H](OS(=O)(=O)[O-])[C@@H]4OS(=O)(=O)[O-])[C@@H](OS(=O)(=O)[O-])[C@H](OS(=O)(=O)[O-])[C@@H]3OS(=O)(=O)[O-])[C@H](OS(=O)(=O)[O-])[C@@H]2OS(=O)(=O)[O-])[C@@H](OS(=O)(=O)[O-])[C@@H](OS(=O)(=O)[O-])[C@H]1OS(=O)(=O)[O-].[Na+].[Na+].[Na+].[Na+].[Na+].[Na+].[Na+].[Na+].[Na+].[Na+].[Na+].[Na+].[Na+].[Na+]` gave a Relative inhibitory activity in the assay filed under Rattus norvegicus of 0.9. For the same compound, the IC50 at Prothrombin and on Coagulation factor X was > 477 µM in each case.

Consider `O=S(=O)([O-])OC[C@@H]1O[C@H](O[C@H]2O[C@@H](COS(=O)(=O)[O-])[C@@H](O[C@@H]3O[C@@H](COS(=O)(=O)[O-])[C@@H](OS(=O)(=O)[O-])[C@H](OS(=O)(=O)[O-])[C@@H]3O[C@@H]3O[C@@H](COS(=O)(=O)[O-])[C@@H](OS(=O)(=O)[O-])[C@H](OS(=O)(=O)[O-])[C@@H]3OS(=O)(=O)[O-])[C@H](OS(=O)(=O)[O-])[C@@H]2OS(=O)(=O)[O-])[C@@H](OS(=O)(=O)[O-])[C@@H](OS(=O)(=O)[O-])[C@H]1OS(=O)(=O)[O-].[Na+].[Na+].[Na+].[Na+].[Na+].[Na+].[Na+].[Na+].[Na+].[Na+].[Na+].[Na+].[Na+].[Na+]`, for which the Relative inhibitory activity in the assay listed under Rattus norvegicus came out at 0.3. For the same compound, the IC50 against Prothrombin and against Coagulation factor X was > 477 µM in each case.

In the case of `C[C@@H]1O[C@@H](OC[C@@H]2O[C@@H](O[C@H]3[C@H](OS(=O)(=O)[O-])[C@H](OS(=O)(=O)[O-])[C@@H](O[C@H]4O[C@@H](COS(=O)(=O)[O-])[C@H](OS(=O)(=O)[O-])[C@H](OS(=O)(=O)[O-])[C@@H]4OS(=O)(=O)[O-])O[C@H]3COS(=O)(=O)[O-])[C@@H](OS(=O)(=O)[O-])[C@@H](OS(=O)(=O)[O-])[C@@H]2OS(=O)(=O)[O-])[C@H](OS(=O)(=O)[O-])[C@@H](OS(=O)(=O)[O-])[C@H]1OS(=O)(=O)[O-].[Na+].[Na+].[Na+].[Na+].[Na+].[Na+].[Na+].[Na+].[Na+].[Na+].[Na+].[Na+].[Na+]`, the Relative inhibitory activity in the assay listed under Rattus norvegicus was determined as 0.7. Besides, the IC50 against Prothrombin and against Coagulation factor X was > 506 µM each time.

In turn, `O=S(=O)([O-])OC[C@@H]1O[C@@H](O[C@@H]2[C@H](OS(=O)(=O)[O-])[C@@H](O[C@H]3[C@H](OS(=O)(=O)[O-])[C@H](OS(=O)(=O)[O-])[C@@H](O[C@H]4O[C@@H](COS(=O)(=O)[O-])[C@H](OS(=O)(=O)[O-])[C@H](OS(=O)(=O)[O-])[C@@H]4OS(=O)(=O)[O-])O[C@H]3COS(=O)(=O)[O-])OC[C@H]2OS(=O)(=O)[O-])[C@@H](OS(=O)(=O)[O-])[C@@H](OS(=O)(=O)[O-])[C@H]1OS(=O)(=O)[O-].[Na+].[Na+].[Na+].[Na+].[Na+].[Na+].[Na+].[Na+].[Na+].[Na+].[Na+].[Na+].[Na+]` displayed a Relative inhibitory activity in the assay filed under Rattus norvegicus of 0.7. For the same compound, the IC50 at Prothrombin and on Coagulation factor X was > 509 µM throughout.

Compound `O=S(=O)([O-])OC[C@@H]1O[C@H](O[C@H]2O[C@@H](COS(=O)(=O)[O-])[C@@H](O[C@@H]3O[C@@H](COS(=O)(=O)[O-])[C@@H](OS(=O)(=O)[O-])[C@H](OS(=O)(=O)[O-])[C@@H]3O[C@H]3O[C@@H](COS(=O)(=O)[O-])[C@H](OS(=O)(=O)[O-])[C@H](OS(=O)(=O)[O-])[C@@H]3OS(=O)(=O)[O-])[C@H](OS(=O)(=O)[O-])[C@@H]2OS(=O)(=O)[O-])[C@@H](OS(=O)(=O)[O-])[C@@H](OS(=O)(=O)[O-])[C@H]1OS(=O)(=O)[O-].[Na+].[Na+].[Na+].[Na+].[Na+].[Na+].[Na+].[Na+].[Na+].[Na+].[Na+].[Na+].[Na+].[Na+]` (stereo in doubt; 2) gave a Relative inhibitory activity in the assay filed under Rattus norvegicus of 0.9. Also, the IC50 on Prothrombin and at Coagulation factor X was > 477 µM throughout.

The compound `O=S(=O)([O-])OC[C@@H]1O[C@@H](O[C@H]2O[C@@H](COS(=O)(=O)[O-])[C@@H](O[C@@H]3O[C@@H](CO[C@H]4O[C@@H](COS(=O)(=O)[O-])[C@H](OS(=O)(=O)[O-])[C@H](OS(=O)(=O)[O-])[C@@H]4OS(=O)(=O)[O-])[C@@H](OS(=O)(=O)[O-])[C@H](OS(=O)(=O)[O-])[C@@H]3OS(=O)(=O)[O-])[C@H](OS(=O)(=O)[O-])[C@@H]2OS(=O)(=O)[O-])[C@@H](OS(=O)(=O)[O-])[C@@H](OS(=O)(=O)[O-])[C@H]1OS(=O)(=O)[O-].[Na+].[Na+].[Na+].[Na+].[Na+].[Na+].[Na+].[Na+].[Na+].[Na+].[Na+].[Na+].[Na+].[Na+]` (stereo in doubt; 9) registered a Relative inhibitory activity in the assay filed under Rattus norvegicus of 0.8. For the same compound, the IC50 at Prothrombin and on Coagulation factor X was > 477 µM each time.

`O=S(=O)([O-])OC[C@@H]1O[C@@H](O[C@H]2O[C@@H](COS(=O)(=O)[O-])[C@@H](O[C@@H]3O[C@@H](CO[C@H]4O[C@@H](COS(=O)(=O)[O-])[C@H](OS(=O)(=O)[O-])[C@H](OS(=O)(=O)[O-])[C@@H]4OS(=O)(=O)[O-])[C@@H](OS(=O)(=O)[O-])[C@H](OS(=O)(=O)[O-])[C@@H]3OS(=O)(=O)[O-])[C@H](OS(=O)(=O)[O-])[C@@H]2OS(=O)(=O)[O-])[C@@H](OS(=O)(=O)[O-])[C@@H](OS(=O)(=O)[O-])[C@H]1OS(=O)(=O)[O-].[Na+].[Na+].[Na+].[Na+].[Na+].[Na+].[Na+].[Na+].[Na+].[Na+].[Na+].[Na+].[Na+].[Na+]` (stereo in doubt; 12): the Relative inhibitory activity in the assay filed under Rattus norvegicus amounted to 0.6. Moreover, the IC50 at Prothrombin and against Coagulation factor X was > 477 µM each time.

Consider `O=S(=O)([O-])OC[C@@H]1O[C@H](O[C@H]2O[C@@H](COS(=O)(=O)[O-])[C@@H](O[C@@H]3O[C@@H](COS(=O)(=O)[O-])[C@@H](OS(=O)(=O)[O-])[C@H](OS(=O)(=O)[O-])[C@@H]3O[C@H]3O[C@@H](COS(=O)(=O)[O-])[C@H](OS(=O)(=O)[O-])[C@H](OS(=O)(=O)[O-])[C@@H]3OS(=O)(=O)[O-])[C@H](OS(=O)(=O)[O-])[C@@H]2OS(=O)(=O)[O-])[C@@H](OS(=O)(=O)[O-])[C@@H](OS(=O)(=O)[O-])[C@H]1OS(=O)(=O)[O-].[Na+].[Na+].[Na+].[Na+].[Na+].[Na+].[Na+].[Na+].[Na+].[Na+].[Na+].[Na+].[Na+].[Na+]` (stereo in doubt; 13), for which, in the assay listed under Rattus norvegicus, the Relative inhibitory activity stood at 0.5. For the same compound, the IC50 at Prothrombin and at Coagulation factor X was > 477 µM in each case.

Turning to `O=S(=O)(O)OC[C@@H]1O[C@H](O[C@H]2O[C@@H](COS(=O)(=O)O)[C@@H](O[C@@H]3O[C@@H](COS(=O)(=O)O)[C@@H](OS(=O)(=O)O)[C@H](OS(=O)(=O)O)[C@@H]3O[C@H]3O[C@@H](COS(=O)(=O)O)[C@H](OS(=O)(=O)O)[C@H](OS(=O)(=O)O)[C@@H]3OS(=O)(=O)O)[C@H](OS(=O)(=O)O)[C@@H]2OS(=O)(=O)O)[C@@H](OS(=O)(=O)O)[C@@H](OS(=O)(=O)O)[C@H]1OS(=O)(=O)O` (stereo in doubt; 14), the IC50 against Prothrombin and against Coagulation factor X was > 477 µM in each case.

Broadly, the IC50 is the concentration needed to halve the response being measured. A high value points to a need for much substance.
